Values of other authors, collected in publication PMC12525602, “Identification of Selective α-Glucosidase Inhibitors via Virtual Screening with Machine Learning” (Molecules, 2025).

Test system: α-glucosidase
Conditions: Table S5 modeling dataset; activity label 1 = active, 0 = inactive; cited from earlier work
In the case of `O=C(O)C1(O)C[C@@H](O)C(O)[C@H](O)C1` (stereo partly shown) [compound 91], the activity is listed as 0.
For `CC1CCCN(c2ccc(/C=N/Nc3nc(-c4ccc(O)c(O)c4)cs3)cc2)C1` (stereo not shown) [compound 93], the activity is given as 0.
In the case of `O=C(NNS(=O)(=O)c1ccc(OC(F)(F)F)cc1)c1cc2cc(F)ccc2[nH]1` [compound 94], the activity is given as 0.
For `O=C(c1ccccc1)c1ccc2nc(-c3ccc(F)cc3)[nH]c2c1` [compound 95], the activity is listed as 0.
For `N#Cc1c(-c2ccc(Cl)cc2)cc(-c2cccnc2)c(C#N)c1N` [compound 97], the activity is given as 0.
In the case of `CCCCCCCC/C=C\CCCCCCCCCC(=O)O` [compound 98], the activity is given as 0.
In the case of `Brc1cccc(CSc2nnc(COc3cccc4cccnc34)o2)c1` [compound 99], the activity is listed as 0.
In the case of `COc1cccc(C(=O)C2C(O)c3ccccc3S(=O)(=O)N2CC(=O)Nc2ccc([N+](=O)[O-])cc2)c1` (stereo not shown) [compound 101], the activity is listed as 0.
In the case of `COc1ccccc1Nc1nnc(-c2cc3cc(C#N)ccc3[nH]2)s1` [compound 102], the activity is listed as 0.
In the case of `N#Cc1c(-c2ccc(Cl)cc2)cc(-c2ccc([N+](=O)[O-])cc2)c(C#N)c1N` [compound 103], the activity is listed as 0.
In the case of `O=c1c(O[C@@H]2OC[C@H](O)[C@H](O)[C@H]2O)c(-c2ccc(O)c(O)c2)oc2cc(O)cc(O)c12` [compound 104], the activity is listed as 0.
In the case of `COc1ccc(S(=O)(=O)NNC(=O)c2cc3cc(F)ccc3[nH]2)cc1` [compound 105], the activity is given as 0.
In the case of `CC1CCCN(c2ccc(/C=N/Nc3nc(-c4ccc(C#N)cc4)cs3)cc2)C1` (stereo not shown) [compound 106], the activity is given as 0.
In the case of `Brc1ccc(CSc2nnc(COc3cccc4cccnc34)o2)cc1` [compound 107], the activity is listed as 0.
In the case of `Fc1ccc(CSc2nnc(COc3cccc4cccnc34)o2)c(F)c1` [compound 108], the activity is listed as 0.
In the case of `O=C(NNS(=O)(=O)c1ccc([N+](=O)[O-])cc1)c1cc2cc(F)ccc2[nH]1` [compound 109], the activity is given as 0.
For `O=C(c1ccccc1)c1ccc2nc(-c3ccc(Cl)cc3Cl)[nH]c2c1` [compound 110], the activity is given as 0.
In the case of `Clc1ccc(CSc2nnc(COc3cccc4cccnc34)o2)c(Cl)c1` [compound 111], the activity is given as 0.
For `CC1CCN(c2ccc(/C=N/Nc3nc(-c4ccccc4)cs3)cc2)CC1` [compound 112], the activity is given as 0.
In the case of `N#Cc1c(-c2ccncc2)cc(-c2ccc(Cl)cc2)c(C#N)c1N` [compound 113], the activity is listed as 0.
For `O=C(c1ccccc1)c1ccc2nc(-c3ccc(Cl)cc3)[nH]c2c1` [compound 114], the activity is given as 0.
In the case of `Fc1ccc(-n2cc(CSc3nnc(COc4cccc5cccnc45)o3)nn2)cc1` [compound 115], the activity is given as 0.
In the case of `c1ccc(CSc2nnc(COc3cccc4cccnc34)o2)cc1` [compound 116], the activity is listed as 0.
For `C[C@@H]1O[C@@H](Oc2c(-c3ccc(O)cc3)oc3cc(O)cc(O)c3c2=O)[C@H](O)[C@H](O)[C@H]1O` [compound 117], the activity is listed as 0.
In the case of `COc1cccc(C(=O)C2C(O)c3ccccc3S(=O)(=O)N2CC(=O)Nc2cccc(Br)c2)c1` (stereo not shown) [compound 118], the activity is listed as 0.
In the case of `CC1CCCN(c2ccc(/C=N/Nc3nc(-c4ccccc4)cs3)cc2)C1` (stereo not shown) [compound 119], the activity is given as 0.
For `N#Cc1c(-c2ccc(Cl)cc2)cc(-c2cccc([N+](=O)[O-])c2)c(C#N)c1N` [compound 120], the activity is listed as 0.
For `Clc1ccc(CSc2nnc(COc3cccc4cccnc34)o2)cc1` [compound 121], the activity is listed as 0.
For `N#Cc1ccc(S(=O)(=O)NNC(=O)c2cc3cc(F)ccc3[nH]2)cc1` [compound 122], the activity is given as 0.
For `CCCSc1nnc(COc2cccc3cccnc23)o1` [compound 123], the activity is given as 0.
In the case of `N#Cc1ccc2[nH]c(-c3nnc(Nc4cccc(F)c4)s3)cc2c1` [compound 124], the activity is listed as 0.
For `N#Cc1ccc2[nH]c(-c3nnc(Nc4ccccc4Cl)s3)cc2c1` [compound 125], the activity is listed as 0.
In the case of `CC1(C)CC[C@]2(C(=O)O)CC[C@]3(C)C(=CC[C@@H]4[C@@]5(C)CC[C@H](O)C(C)(C)[C@@H]5CC[C@]43C)[C@@H]2C1` [compound 126], the activity is given as 0.
In the case of `COC(=O)/C=C/c1ccc(O)c(OC)c1` [compound 127], the activity is listed as 0.
For `Fc1ccc(CSc2nnc(COc3cccc4cccnc34)o2)cc1` [compound 128], the activity is given as 0.
In the case of `CCCCCC/C=C\CCCCCCCC(=O)O` [compound 129], the activity is listed as 0.
For `CC(C)=CCC1(O)C(O)=C(C(=O)CC(C)C)C(=O)C1(O)C(=O)C=C(C)C` (stereo not shown) [compound 130], the activity is given as 0.
In the case of `N#Cc1c(-c2ccc(Cl)cc2)cc(-c2ccc(Cl)cc2)c(C#N)c1N` [compound 131], the activity is listed as 0.
In the case of `C[n+]1cccc(C(=O)[O-])c1` [compound 133], the activity is given as 0.
In the case of `O=C(c1ccccc1)c1ccc2nc(-c3ccc(O)cc3)[nH]c2c1` [compound 135], the activity is given as 0.
In the case of `O=C(NNS(=O)(=O)c1cccc(Cl)c1)c1cc2cc(F)ccc2[nH]1` [compound 136], the activity is listed as 0.
For `COc1cc(/C=C2\CC(=O)N(C(=O)CN3CCOCC3)C2=O)ccc1O` [compound 137], the activity is listed as 0.

Same assay, conditions: activity label of the modeling dataset, Table S5 (1 = active, 0 = inactive); cited from earlier work
In the case of `CC1CCCN(c2ccc(/C=N/Nc3nc(-c4ccc(F)cc4F)cs3)cc2)C1` (stereo not shown) [compound 78], the activity is listed as 0.
In the case of `CC1CCN(c2ccc(/C=N/Nc3nc(-c4ccc(O)c(O)c4)cs3)cc2)CC1` [compound 79], the activity is listed as 0.
For `Fc1ccc(CSc2nnc(COc3cccc4cccnc34)o2)cc1F` [compound 80], the activity is listed as 0.
In the case of `Brc1ccc(-n2cc(CSc3nnc(COc4cccc5cccnc45)o3)nn2)cc1` [compound 81], the activity is listed as 0.
For `CCCCCn1cc(CSc2nnc(COc3cccc4cccnc34)o2)nn1` [compound 82], the activity is listed as 0.
For `CC1CCN(c2ccc(/C=N/Nc3nc(-c4ccc(Cl)cc4)cs3)cc2)CC1` [compound 83], the activity is listed as 0.
In the case of `CC1CCN(c2ccc(/C=N/Nc3nc(-c4ccc(F)cc4F)cs3)cc2)CC1` [compound 84], the activity is given as 0.
In the case of `C=CCSc1nnc(COc2cccc3cccnc23)o1` [compound 85], the activity is given as 0.
In the case of `CC(C)=CCSc1nnc(COc2cccc3cccnc23)o1` [compound 86], the activity is given as 0.
In the case of `CC1CCCN(c2ccc(/C=N/Nc3nc(-c4ccc(F)cc4)cs3)cc2)C1` (stereo not shown) [compound 87], the activity is listed as 0.
For `CC(C)c1ccc(S(=O)(=O)NNC(=O)c2cc3cc(F)ccc3[nH]2)cc1` [compound 88], the activity is given as 0.
In the case of `O=[N+]([O-])c1ccc(CSc2nnc(COc3cccc4cccnc34)o2)cc1` [compound 89], the activity is given as 0.
For `O=C(NNS(=O)(=O)c1cccc2ncccc12)c1cc2cc(F)ccc2[nH]1` [compound 90], the activity is listed as 0.

Same assay, conditions: activity label of the modeling dataset, Table S5; cited from earlier work
For `CC(C)=CCC1=C(O)[C@@](O)(CC=C(C)C)C(=O)C(C(=O)CC(C)C)=C1O` [compound 138], the activity is given as 0.
For `O=c1c(O[C@@H]2O[C@@H](CO)[C@H](O)[C@H]2O)c(-c2ccc(O)c(O)c2)oc2cc(O)cc(O)c12` [compound 139], the activity is listed as 0.
For `CC1CCCN(c2ccc(/C=N/Nc3nc(-c4ccc(O)cc4)cs3)cc2)C1` (stereo not shown) [compound 140], the activity is given as 0.
For `CCCCCCCCCCCCCC(=O)O` [compound 141], the activity is given as 0.
For `COc1cc(/C=N/N=C2\C(=O)Nc3ccccc32)ccc1OCc1cn(Cc2ccccc2C)nn1` [compound 142], the activity is listed as 0.
For `COc1cc(/C=N/N=C2\C(=O)Nc3ccccc32)ccc1OCc1cn(Cc2ccccc2F)nn1` [compound 143], the activity is given as 0.
